We go through four molecules from patent publication US5616615A, “Enaminone esters” (priority 1995, dated 1997).

Read-outs that look alike come from different tables or passages of the source.

The nature of data set [1]: in vivo. The settings on record: rat, po; for Tox, animals toxic/tested: 50 mg/kg. The text has this: (§1) This oral screen is designated as phase VI.
The test system of data set [2] is Maximal electroshock seizures. Briefly: MES maximal electroshock seizure test, mice ip. Format: in vivo. Set-up: TPE (time of peak effect), activity: unit not given here. The settings on record: ip; for responders at 100 mg/kg / responders at 300 mg/kg: Mus musculus; for responders at 100 mg/kg: read-out: MES, animals protected/tested (converted); for responders at 300 mg/kg: read-out: MES, animals protected/tested; for TPE (time of peak effect), activity: Phase II. The protocol: Three tests were performed:
1. MES--Electroshock Seizure Test
(§2) Maximal electroshock seizures are elicited with a 60-cycle alternating current of 50 mA intensity (5-7 times that necessary to elicit minimal electroshock seizures) delivered via corneal electrodes for 0.2 seconds. A drop of 0.9% saline is instilled in the eye prior to application of the electrodes in order to […].
On the technique in general: The maximal electroshock test induces tonic seizures with an electrical stimulus.

Data set [3] in a line: in vivo. The settings on record: rat, ip.
Description: (§3) The rotorod test is used to elevate neurotoxicity. The animal is placed on a 1 inch diameter knurled plastic rod rotating at 6 rpm. […] Neurologic toxicity is defined as the failure of the animal to remain on the rod for 1 minute and the results are expressed as the number of animals protected/the number of animals tested.
(§4) The toxicity evaluation for the commercial agents as previously indicated was based on the onset of ataxia.
Data set [4] in a line: Neurotoxicity, rats ip.
Description: as §3, §4
Data set [5] deals with seizures. Briefly: Anticonvulsant evaluation (ASP phase I / overall). The data set is classed as in vivo, mice. The conditions noted are these: Mus musculus, ip; Phase I; read-out: ASP Classification. A digest of the protocol: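 Male Carworth Farms #1 mice; maximal electroshock seizures elicited by 60-cycle AC, 50 mA, 0.2 s via corneal electrodes after a drop of 0.9% saline in the eye. Animals observed for 30 minutes.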

The subject of data set [6] is electroshock seizures. Briefly: MES maximal electroshock test, rats ip. The data set is classed as in vivo. The settings on record: for ED50: Rattus norvegicus, ip.
From the text: as §2

In data set [7] the test system is Subcutaneous Pentylenetetrazol seizure. Briefly: sc Met subcutaneous pentylenetetrazol (Metrazol) seizure test, mice. Format: in vivo. The settings on record: Mus musculus, sc, read-out: scMet, animals protected/tested (converted).
Data set [8] deals with Maximal electroshock seizures. Briefly: Phase VI oral MES test, rats. Format: in vivo. The conditions noted are these: oral; for responders at 50 mg/kg: Rattus norvegicus, read-out: MES, animals protected/tested (converted); for ED50: Phase VI, rat.
From the text: as §2, §1

Data set [9] concerns Corneal Kindled rats. Set-up: ED50 (reduction from Stage 5 to Stage 4): unit not given beside the values. The conditions noted are these: cited from earlier work; for ED50 (reduction from Stage 5 to Stage 4): data provided by the ADD Program.
Data set [10] is described as follows: in vivo. The settings on record: mouse, in vivo, ip.

With `COC(=O)C1C(=O)C=C(Nc2ccc(Br)cc2)CC1C` (centres unmarked) [Compound 113], in data set [1], the “Tox, animals toxic/tested” value is reported as 0/4. Besides, the responders at 100 mg/kg in data set [2] (0.5 h, 30 min) is 100%; in data set [2] (4 h, 4 h), 100%; in data set [7] (0.5 h, 30 min) it was 0%; in [7] (4 h, 4 h), 0%. In addition, the responders at 300 mg/kg in data set [2] (0.5 h, 30 min) was 100%; in [2] (4 h, 4 h), 100%; in data set [7] (0.5 h, 30 min), 40%; in data set [7] (4 h, 4 h), 0%. In data set [3], this molecule had a TD50 at 2 h of 270 mg/kg. Moreover, the selectivity ratio in data set [3] stood at 67.4. Besides, the “Tox, animals exhibiting neurotoxicity/tested” value in data set [4] (100 mg/kg, 2.00 h (Table VIII)) is recorded as 0/8; in data set [4] (180 mg/kg, 2.00 h (Table VII)), 2/4; in data set [4] (180 mg/kg, 2.00 h (Table VIII)) it was 2/8; in data set [4] (180 mg/kg, 4.00 h), 1/8; in data set [4] (220 mg/kg, 0.25 h), 0/8; in [4] (220 mg/kg, 0.50 h), 0/8. In addition, the “Tox, animals exhibiting neurotoxicity/tested” value was 1/8 in [4] (220 mg/kg, 1.00 h); 4/8 in data set [4] (220 mg/kg, 2.00 h); 4/8 in [4] (220 mg/kg, 2.00 h (Table VIII)); 0/8 in data set [4] (220 mg/kg, 6.00 h); 0/8 in data set [4] (220 mg/kg, 24.00 h); 6/8 in data set [4] (440 mg/kg, 2.00 h). In addition, the minimal effective dose in [5] is under 100 mg/kg. The “MES, animals protected/tested” value in data set [6] (1.2 mg/kg, 0.25 h) is on record as 0/8; in data set [6] (3.6 mg/kg, 0.25 h), 5/8; in data set [6] (4.5 mg/kg, 0.25 h), 3/8; in data set [6] (4.8 mg/kg, 0.25 h), 3/4; in [6] (4.8 mg/kg, 0.50 h), 3/4; in [6] (4.8 mg/kg, 1.00 h), 2/4. The “MES, animals protected/tested” value is listed as 3/4 in data set [6] (6.0 mg/kg, 0.25 h); 2/4 in data set [6] (6.0 mg/kg, 0.50 h); 3/4 in data set [6] (6.0 mg/kg, 1.00 h); 0/4 in data set [6] (6.0 mg/kg, 2.00 h); 7/8 in data set [6] (7.0 mg/kg, 0.25 h). In addition, the ED50 (as a rule, the dose at which the effect has come halfway, by size or by number of responders) in data set [6] (0.25 h) was 4 mg/kg. Moreover, the responders at 50 mg/kg is 100% in data set [8] (0.5 h, 0.50 h); 75% in data set [8] (0.25 h); 100% in data set [8] (1.00 h); 100% in data set [8] (2.00 h); 100% in data set [8] (4.00 h).
`COC(=O)C1C(=O)C=C(Nc2ccc(C(F)(F)F)cc2)CC1C` (centres unmarked) [Compound 115]: the “Tox, animals toxic/tested” value in data set [1] is given as 0/4. Besides, the responders at 100 mg/kg was 100% in data set [2] (0.5 h, 30 min); 33.3% in [2] (4 h, 4 h); 0% in data set [7] (0.5 h, 30 min); 0% in [7] (4 h, 4 h). Moreover, the responders at 300 mg/kg in [2] (0.5 h, 30 min) was 100%; in [2] (4 h, 4 h) it was 100%; in data set [7] (0.5 h, 30 min) it was 40%; in data set [7] (4 h, 4 h) it was 0%. The same molecule returned a TD50 in data set [3] of over 64 mg/kg. Moreover, the selectivity ratio in data set [3] is over 21.7. The “Tox, animals exhibiting neurotoxicity/tested” value is recorded as 0/2 in data set [4] (8 mg/kg, 0.25-24 h); 0/2 in [4] (16 mg/kg, 0.25-24 h); 0/2 in [4] (32 mg/kg, 0.25-24 h); 0.2 in data set [4] (64 mg/kg, 0.25-24 h). Moreover, the minimal effective dose in data set [5] is under 100 mg/kg. The “MES, animals protected/tested” value in data set [6] (1.0 mg/kg, 0.50 h) is listed as 0/8; in data set [6] (2.0 mg/kg, 0.50 h (Table VII)), 1/4; in data set [6] (2.0 mg/kg, 0.50 h (Table VIII)), 3/8; in [6] (2.0 mg/kg, 1.00 h) it was 1/4; in data set [6] (3.0 mg/kg, 0.50 h) it was 3/8; in [6] (3.5 mg/kg, 0.50 h) it was 4/8. Further, the “MES, animals protected/tested” value in [6] (4.0 mg/kg, 0.25 h) is 2/4; in [6] (4.0 mg/kg, 0.50 h (Table VII)), 3/4; in [6] (4.0 mg/kg, 0.50 h (Table VIII)) it was 7/8; in data set [6] (4.0 mg/kg, 1.00 h), 3/4; in data set [6] (4.0 mg/kg, 2.00 h), 2/4. The molecule further displayed a 50% effective dose (ED50) in data set [6] (0.5 h, 0.50 h) of 2.95 mg/kg. Moreover, the responders at 50 mg/kg was 100% in [8] (0.5 h, 0.50 h); 75% in [8] (0.25 h); 100% in data set [8] (1.00 h); 100% in [8] (2.00 h); 100% in [8] (4.00 h).
In turn, `O=C1NC(=O)C(c2ccccc2)(c2ccccc2)N1` [phenytoin, reference compound] returned a TD50 in [1] of over 3000 mg/kg. Besides, the “TPE (time of peak effect), activity” value in data set [2] turned out to be 2. In addition, the “ED50 (reduction from Stage 5 to Stage 4)” value is recorded as 48.25 in data set [9] (ip, 0.5 h) and over 100 in data set [9] (po, 0.5 h). Besides, the “activity in corneal kindling” value in [9] (oral route) is “inactive”. In addition, the “TPE (time of peak effect), toxicity” value in data set [10] was found to be 2. In [8], this molecule returned an ED50 of 29.8 mg/kg.
Regarding `NC(=O)N1c2ccccc2C=Cc2ccccc21` [carbamazepine, reference compound], in data set [2], the “TPE (time of peak effect), activity” value worked out at 0.5. Besides, in [9] (comparative commercial product), the “ED50, corneal kindling” value was 28.90 mg/kg. Further, in [9] (po, 1 h, 30 min), the “ED50 (reduction from Stage 5 to Stage 4)” value is on record as 28.90. In [10], the “TPE (time of peak effect), toxicity” value came out at 0.5. In data set [8], the ED50 came out at 8.5 mg/kg.
